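GI50 = concentration required for 50% inhibition of growth. TGI: total growth inhibition.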
Legend:
Assay in all cases: NCI tumour cell line growth inhibition, 384-well format
786-0 renal = system: 786-0 renal
A498 renal = system: A498 renal
A549 NSCLC = system: A549 NSCLC
ACHN renal = system: ACHN renal
BT-549 breast = system: BT-549 breast
CAKI-1 renal = system: CAKI-1 renal
CCRF-CEM leukemia = system: CCRF-CEM leukemia
DU-145 prostate = system: DU-145 prostate
HCT-116 colon = system: HCT-116 colon
HCT-15 colon = system: HCT-15 colon
HL-60(TB) leukemia = system: HL-60(TB) leukemia
HOP-62 NSCLC = system: HOP-62 NSCLC
HOP-92 NSCLC = system: HOP-92 NSCLC
HT29 colon = system: HT29 colon
IGROV1 ovarian = system: IGROV1 ovarian
K-562 leukemia = system: K-562 leukemia
KM12 colon = system: KM12 colon
LOX IMVI melanoma = system: LOX IMVI melanoma
M14 melanoma = system: M14 melanoma
MALME-3M melanoma = system: MALME-3M melanoma
MCF7 breast = system: MCF7 breast
MDA-MB-231 breast = system: MDA-MB-231 breast
MDA-MB-435 melanoma = system: MDA-MB-435 melanoma
MDA-MB-468 breast = system: MDA-MB-468 breast
MOLT-4 leukemia = system: MOLT-4 leukemia
NCI-H226 lung = system: NCI-H226 lung
NCI-H23 lung = system: NCI-H23 lung
NCI-H522 lung = system: NCI-H522 lung
NCI/ADR-RES ovarian = system: NCI/ADR-RES ovarian
OVCAR-3 ovarian = system: OVCAR-3 ovarian
OVCAR-5 ovarian = system: OVCAR-5 ovarian
OVCAR-8 ovarian = system: OVCAR-8 ovarian
PC-3 prostate = system: PC-3 prostate
RPMI-8226 leukemia = system: RPMI-8226 leukemia
RXF 393 renal = system: RXF 393 renal
SF-268 CNS = system: SF-268 CNS
SF-295 CNS = system: SF-295 CNS
SF-539 CNS = system: SF-539 CNS
SK-MEL-2 melanoma = system: SK-MEL-2 melanoma
SK-MEL-28 melanoma = system: SK-MEL-28 melanoma
SK-OV-3 ovarian = system: SK-OV-3 ovarian
SN12C renal = system: SN12C renal
SNB-19 CNS = system: SNB-19 CNS
SNB-75 CNS = system: SNB-75 CNS
SW-620 colon = system: SW-620 colon
T-47D breast = system: T-47D breast
TK-10 renal = system: TK-10 renal
U251 glioblastoma = system: U251 glioblastoma
UACC-62 melanoma = system: UACC-62 melanoma
UO-31 renal = system: UO-31 renal

**Q.** Which GI50 ([…]-0 renal) does the source give for `O=c1[nH]cc(N(CCCl)CCCl)c(=O)[nH]1` here?
**A.** Its GI50 is 16.8 µM.

**Q.** And the GI50 (A498 renal)?
**A.** Its GI50 is 68.9 µM.

**Q.** And the GI50 (A549 NSCLC)?
**A.** Its GI50 is 26.8 µM.

**Q.** What about the GI50 (ACHN renal) of the same compound?
**A.** The GI50 was 2.88 µM.

**Q.** And the TGI (ACHN renal)?
**A.** The TGI was 8.7 µM.

**Q.** And the GI50 (BT-549 breast)?
**A.** Its GI50 is 11.2 µM.

**Q.** And the TGI (BT-549 breast)?
**A.** The TGI was 46.8 µM.

**Q.** And the GI50 (CAKI-1 renal)?
**A.** The GI50 was 4.39 µM.

**Q.** And the TGI (CAKI-1 renal)?
**A.** Its TGI is 76.3 µM.

**Q.** And the GI50 (CCRF-CEM leukemia)?
**A.** Its GI50 is 2.21 µM.

**Q.** What about the TGI (CCRF-CEM leukemia) of the same compound?
**A.** Its TGI is 4.17 µM.

**Q.** And the GI50 (DU-145 prostate)?
**A.** Its GI50 is 14.1 µM.

**Q.** And the TGI (DU-145 prostate)?
**A.** Its TGI is 42.1 µM.

**Q.** What about the GI50 (HCT-116 colon) of the same compound?
**A.** The GI50 was 7.54 µM.

**Q.** And the GI50 (HCT-15 colon)?
**A.** Its GI50 is 7.48 µM.

**Q.** And the GI50 (HL-60(TB) leukemia)?
**A.** Its GI50 is 1.23 µM.

**Q.** And the TGI (HL-60(TB) leukemia)?
**A.** The TGI was 2.57 µM.

**Q.** What about the GI50 (HOP-62 NSCLC) of the same compound?
**A.** Its GI50 is 7.79 µM.

**Q.** And the TGI (HOP-62 NSCLC)?
**A.** Its TGI is 31.3 µM.

**Q.** And the GI50 (HOP-92 NSCLC)?
**A.** The GI50 was 19.3 µM.

**Q.** What about the GI50 (HT29 colon) of the same compound?
**A.** Its GI50 is 24.5 µM.

**Q.** And the GI50 (IGROV1 ovarian)?
**A.** Its GI50 is 91.9 µM.

**Q.** And the GI50 (K-562 leukemia)?
**A.** Its GI50 is 17.4 µM.

**Q.** What about the GI50 (KM12 colon) of the same compound?
**A.** Its GI50 is 98.9 µM.

**Q.** What about the GI50 (LOX IMVI melanoma) of the same compound?
**A.** Its GI50 is 19.4 µM.

**Q.** And the GI50 (M14 melanoma)?
**A.** Its GI50 is 9.7 µM.

**Q.** What about the TGI (M14 melanoma) of the same compound?
**A.** Its TGI is 61.6 µM.

**Q.** What about the GI50 (MALME-3M melanoma) of the same compound?
**A.** Its GI50 is 19.2 µM.

**Q.** And the GI50 (MCF7 breast)?
**A.** Its GI50 is 18 µM.

**Q.** What about the GI50 (MDA-MB-231 breast) of the same compound?
**A.** Its GI50 is 35.1 µM.

**Q.** And the GI50 (MDA-MB-435 melanoma)?
**A.** The GI50 was 86.4 µM.

**Q.** What about the GI50 (MDA-MB-468 breast) of the same compound?
**A.** Its GI50 is 2.73 µM.

**Q.** And the TGI (MDA-MB-468 breast)?
**A.** The TGI was 14.2 µM.

**Q.** What about the GI50 (MOLT-4 leukemia) of the same compound?
**A.** Its GI50 is 0.594 µM.

**Q.** And the TGI (MOLT-4 leukemia)?
**A.** The TGI was 1.87 µM.

**Q.** And the GI50 (NCI-H226 lung)?
**A.** The GI50 was 51.4 µM.

**Q.** What about the GI50 (NCI-H23 lung) of the same compound?
**A.** Its GI50 is 12.3 µM.

**Q.** What about the TGI (NCI-H23 lung) of the same compound?
**A.** The TGI was 57.9 µM.

**Q.** What about the GI50 (NCI-H522 lung) of the same compound?
**A.** Its GI50 is 12.7 µM.

**Q.** And the TGI (NCI-H522 lung)?
**A.** Its TGI is 25.6 µM.

**Q.** What about the GI50 (NCI/ADR-RES ovarian) of the same compound?
**A.** The GI50 was 15.8 µM.

**Q.** What about the GI50 (OVCAR-3 ovarian) of the same compound?
**A.** Its GI50 is 23.5 µM.

**Q.** And the GI50 (OVCAR-5 ovarian)?
**A.** Its GI50 is 20.1 µM.

**Q.** And the TGI (OVCAR-5 ovarian)?
**A.** The TGI was 67.4 µM.

**Q.** And the GI50 (OVCAR-8 ovarian)?
**A.** The GI50 was 9.13 µM.

**Q.** What about the GI50 (PC-3 prostate) of the same compound?
**A.** The GI50 was 73.1 µM.

**Q.** And the GI50 (RPMI-8226 leukemia)?
**A.** Its GI50 is 6.85 µM.

**Q.** What about the TGI (RPMI-8226 leukemia) of the same compound?
**A.** The TGI was 20.3 µM.

**Q.** What about the GI50 (RXF 393 renal) of the same compound?
**A.** The GI50 was 13.2 µM.

**Q.** And the TGI (RXF 393 renal)?
**A.** The TGI was 27.4 µM.

**Q.** And the GI50 (SF-268 CNS)?
**A.** The GI50 was 5.68 µM.

**Q.** What about the TGI (SF-268 CNS) of the same compound?
**A.** Its TGI is 41.1 µM.

**Q.** And the GI50 (SF-295 CNS)?
**A.** The GI50 was 8.54 µM.

**Q.** And the TGI (SF-295 CNS)?
**A.** The TGI was 26.4 µM.

**Q.** And the GI50 (SF-539 CNS)?
**A.** The GI50 was 7.24 µM.

**Q.** And the TGI (SF-539 CNS)?
**A.** The TGI was 29.8 µM.

**Q.** What about the GI50 (SK-MEL-2 melanoma) of the same compound?
**A.** The GI50 was 68 µM.

**Q.** What about the GI50 (SK-MEL-28 melanoma) of the same compound?
**A.** Its GI50 is 65.8 µM.

**Q.** And the GI50 (SK-OV-3 ovarian)?
**A.** Its GI50 is 28.9 µM.

**Q.** And the GI50 (SN12C renal)?
**A.** The GI50 was 4.66 µM.

**Q.** And the TGI (SN12C renal)?
**A.** The TGI was 53.6 µM.

**Q.** And the GI50 (SNB-19 CNS)?
**A.** Its GI50 is 24.6 µM.

**Q.** And the GI50 (SNB-75 CNS)?
**A.** The GI50 was 29.1 µM.

**Q.** And the GI50 (SW-620 colon)?
**A.** The GI50 was 8.78 µM.

**Q.** What about the GI50 (T-47D breast) of the same compound?
**A.** Its GI50 is 30 µM.

**Q.** What about the GI50 (TK-10 renal) of the same compound?
**A.** The GI50 was 50 µM.

**Q.** And the GI50 (U251 glioblastoma)?
**A.** Its GI50 is 10.2 µM.

**Q.** And the GI50 (UACC-62 melanoma)?
**A.** The GI50 was 6.43 µM.

**Q.** What about the GI50 (UO-31 renal) of the same compound?
**A.** The GI50 was 20.3 µM.

Source: PubChem BioAssay (NCI)
